Patent US9492450B2, “Inhibition of dynamin related protein 1 to promote cell death” (University of Pittsburgh—of the Commonwealth System of …, priority 2011, dated 2016)

Legend:
MDA-MB-231 cells [1] = experiment: DNA content flow cytometry (propidium iodide): G2/M arrest and aneuploidy; assay type: cell-based, human; conditions: mdivi-1 50 μM 24 and 48 h, siRNA 72 and 96 h
Experimental: Cell cycle distribution was determined by flow cytometric analysis of propidium iodide stained cells. The percentage of the cells containing a DNA content of 4N and a DNA content>4N are indicated. […] MDA-MB-231 cells were treated with either 5 μg/ml oligomycin, 5 μM FCCP, or 10 μg/ml antimycin A for 24 h. Cell cycle distribution was determined as described above.
Cell cycle distribution was determined by flow cytometric analysis of propidium iodide stained cells. The percentage of the cells containing a DNA content of 4N and >4N are indicated. Data presented in this figure are representative of three independent experiments.
For DNA content analysis, cells were trypsinized and fixed in 70% ice-cold ethanol overnight at 4° C. After fixation, the cells were washed with 1% BSA/PBS, and permeabilized using 0.25% triton-X 100 in 1% BSA/PBS. Cells were then incubated in PI solution (PBS containing 50 μg/ml of PI and 40 μg/ml of RNase A) for 30 min at room temperature.

MDA-MB-231 cells [2] = experiment: Chromosome and mitotic spindle morphology in mitotic cells; assay type: cell-based, human; conditions: 7 hours
Experimental: The effect of Drp1 inhibition of chromosome stability was then evaluated. MDA-MB-231 cells that have been engineered to stably express a mitochondrial marker protein pAcGFP-1-mito were treated with mdivi-1 for 7 hours. Mitotic cells were selected for examining the morphology of their chromosomes and mitotic spindles. Chromosomes were visualized by DAPI, and mitotic spindles were visualized by staining cells with Alex-Fluor 555-conjugated anti-β tubulin antibody. The results are shown in FIG. 11; two representative mitotic figures are shown.

Drp1 = conditions: as said in Cassidy-Stone et al., Dev Cell 14:193-204; cited from earlier work
MDA-MB-231 cells [3] = experiment: CyQUANT growth assay, continuous exposure; assay type: cell-based, human; conditions: various concentrations
Experimental: To test the effect of Drp1 inhibition on tumor cells, MDA-MB-231 cells were plated in black 96-well plates and treated with various concentrations of mdivi-1. Cell numbers were measured by CyQUANT assay every day.

MDA-MB-231 cells [4] = experiment: Cisplatin cytotoxicity under Drp1 inhibition (subG1, LIVE/DEAD kit, caspase Western blot); assay type: cell-based, human
Experimental: To test the effect of Drp-1 inhibition on the effectiveness of cisplatin, in a first series of experiments, MDA-MB-231 cells were transfected with control or Drp1 siRNA, and 48 hours later were then treated with 40 μM of cisplatin for a 24 hour period. The effect of different concentrations of cisplatin on the Drp1 knockdown cells is shown in FIG. 13A, where the subG1 portion in the cell cycle profile indicates cytotoxicity. In a second series of experiments, a LIVE/DEAD Viability/Cytotoxicity kit (Invitrogen) was used to evaluate the effect of inhibition of Drp1 by mdivi-1 on cisplatin cytotoxicity. In this test, the percentage of lice and dead cells are determined simultaneously with two probes, calcein AM and ethidium homodimer (EthD-1). […] EthD-1 is excluded by the intact plasma membrane of live cells but is able to enter cells with damaged membranes and undergo a 40-fold enhancement of red fluorescence upon binding to nucleic acids. […] Calcein AM and EthD-1 were added to the cell suspension at final concentrations of 0.1 μM and 8 μM, respectively, Fluorescence intensity was analyzed on a CyAn ADP Analyzer (Beckman Coulter, Brea, Calif.) and the results were analyzed using Summit software. The live-cell population that was positively stained with calcein was detected in the bottom right region and indicated with an arrow. […]

[5] = Solubility of mdivi-1 with carrier compounds; assay type: physicochemical; conditions: 1 mM mdivi-1
[6] = biological target: T1, Dnm1, the yeast ortholog of Drp1 (Saccharomyces cerevisiae, UniProt P54861); conditions: US2005/0038051 and US2008/0287473; cited from earlier work
T1 sequence (P54861 1-757): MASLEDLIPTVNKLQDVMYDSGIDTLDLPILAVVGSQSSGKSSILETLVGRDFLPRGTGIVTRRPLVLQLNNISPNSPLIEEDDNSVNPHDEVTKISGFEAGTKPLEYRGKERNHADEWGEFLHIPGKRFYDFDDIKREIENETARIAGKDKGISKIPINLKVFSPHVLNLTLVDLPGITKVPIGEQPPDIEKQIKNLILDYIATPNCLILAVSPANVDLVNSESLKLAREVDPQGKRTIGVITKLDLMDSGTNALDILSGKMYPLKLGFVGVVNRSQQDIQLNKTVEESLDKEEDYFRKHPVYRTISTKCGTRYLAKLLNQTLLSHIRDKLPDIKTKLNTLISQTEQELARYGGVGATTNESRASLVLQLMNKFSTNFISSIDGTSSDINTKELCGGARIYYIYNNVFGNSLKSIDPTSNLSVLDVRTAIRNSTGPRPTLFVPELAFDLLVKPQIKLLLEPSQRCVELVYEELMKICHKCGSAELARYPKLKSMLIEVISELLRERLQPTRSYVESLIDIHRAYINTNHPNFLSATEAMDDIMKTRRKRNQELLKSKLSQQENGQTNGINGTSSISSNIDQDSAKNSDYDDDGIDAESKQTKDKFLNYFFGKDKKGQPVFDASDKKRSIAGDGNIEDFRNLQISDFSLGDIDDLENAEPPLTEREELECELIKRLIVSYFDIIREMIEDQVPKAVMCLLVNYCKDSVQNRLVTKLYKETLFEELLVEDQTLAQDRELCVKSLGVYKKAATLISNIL

Q: Which “G2/M cell cycle arrest and aneuploidy” value (MDA-MB-231 cells [1]) does the source give for `COc1cc(-n2c(=S)[nH]c3ccccc3c2=O)c(Cl)cc1Cl` [mdivi-1] here?
A: induces G2/M cell cycle arrest and aneuploidy

Q: What about the “G2/M cell cycle arrest and aneuploidy” value (MDA-MB-231 cells [1]; listed as Mdivi-1) of the same molecule?
A: induced the similar G2/M cell cycle arrest and aneuploidy

Q: What about the “chromosome stability during mitosis” value (MDA-MB-231 cells [2]) of the same molecule?
A: chromosomal instability

Q: And the “efficacy in inhibiting Drp1 relative to mdivi-1” value (Drp1)?
A: full efficacy

Q: What about the growth of cells (MDA-MB-231 cells [3]) of the same molecule?
A: inhibited the growth of MDA-MB-231 breast cancer cells in a dose-dependent manner

Q: And the “number of dead cells after cisplatin, coadministered with mdivi-1” value (MDA-MB-231 cells [4]; 50 μM mdivi-1, 12 hours, LIVE/DEAD kit)?
A: increased

Q: What about the “number of apoptotic cells after cisplatin, coadministered with mdivi-1” value (MDA-MB-231 cells [4]; caspase activation by Western Blot) of the same molecule?
A: increased

Q: What about the “solubility of mdivi-1” value ([5]; 40% 2-Hydroxypropyl-β-cyclodextrin/PBS) of the same molecule?
A: improve the solubility

Q: And the “solubility of mdivi-1” value ([5]; human serum albumin as vehicle, 15% HSA in 0.85% sodium chloride)?
A: improve the solubility

Q: What about the “inhibition of Dnm1” value [6] of the same molecule?
A: selective inhibitor
